Assay results from US20180200257A1, “METHODS FOR THE TREATMENT OF INFLAMMATORY DISORDERS” (Galapagos NV, priority 2015, published 2018).

Test system: subjects with moderately to severely active RA who have an inadequate response to methotrexate (MTX)
Assay: Study 2 (monotherapy) - Aspartate Aminotransferase (AST) levels
Type: in vivo, human
Settings: 24 weeks results
Description: Randomized, double-blind, placebo-controlled, multicenter, phase IIb dose finding study of Compound 1 (dosed as a [Compound 1:HCl:3H2O]) administered for 24 weeks as monotherapy to subjects with moderately to severely active rheumatoid arthritis who have an inadequate response to methotrexate alone
Double-blind, placebo-controlled, monotherapy study in subjects with moderately to severely active RA who have an inadequate response to methotrexate (MTX) (oral or parenteral).
280 subjects randomized to one of 3 doses of Compound 1 (dosed as a [Compound 1:HCl:3H2O]) or to placebo, given once daily (q.d.).
Twelve weeks of treatment with Compound 1 (dosed as a [Compound 1:HCl:3H2O]) at 50 mg, 100 mg, or 200 mg q.d.; or placebo. At Week 12, all subjects on placebo and the subjects on the 50 mg dose who have not achieved 20% improvement in swollen joint count (SJC66) and tender joint count (TJC68) will be assigned to 100 mg q.d. in a blinded fashion and will continue treatment until Week 24. Subjects in the other groups will maintain their randomized treatment until Week 24.
AST levels determination is available at Quest Diagnostics, Clinical Trials, Quest House, 125-135 Staines Road, Hounslow, Middlesex, TW3 3JB, United Kingdom under Catalogue n#84450. For Study 3, the data are obtained at BARC Europe, 3B,Industrie Park, Zwijnaarde, B-9052 Ghent, Belgium.
AST catalyzes the transamination of aspartate and 2-oxoglutarate, forming L-glutamate and oxalacetate. The oxalacetate is reduced to L-malate by malate dehydrogenase, whilst NADH is converted to NAD+, measured spectrophotometrically. Guidelines for the AST value have been issued by the association for Clinical Biochemistry and Laboratory Medicine, 130-132 Tooley Street LONDON SE1 2TU, united Kingdom, wherein the AST value should be below 34 U/l in Female and below 45 U/L in male. As disclosed in the respective study protocols for Study 1 or 2, at week 12, depending on the outcome of their treatment, the subjects may be continued in their initial treatment course, or reassigned to another treatment group in a randomized blinded fashion until week 24. Therefore, the number of subjects (N) for the period of either 12 weeks, or 24 weeks is provided to reflect this redistribution at week 12.
Subjects in the other groups maintained their randomized treatment until Week 24.

[1] = placebo switching to 100 mg q.d. at week 12, week 16
[2] = placebo switching to 100 mg q.d. at week 12, week 20
[3] = placebo switching to 100 mg q.d. at week 12, week 24

SMILES: O=C(Nc1nc2cccc(-c3ccc(CN4CCS(=O)(=O)CC4)cc3)n2n1)C1CC1 [Compound 1, cyclopropanecarboxylic acid {5-[4-(1,1-dioxo-thiomorpholin-4-ylmethyl)-phenyl]-[1,2,4]triazolo[1,5-a]pyridin-2-yl}-amide]
- Study 2 - AST Mean CFB (50 mg q.d. responders, week 4): −2.3 IU/L
- Study 2 - AST Mean percentage CFB (50 mg q.d. responders, week 4): −1.03%
- Study 2 - AST Mean CFB (50 mg q.d. responders, week 8): −3.2 IU/L
- Study 2 - AST Mean percentage CFB (50 mg q.d. responders, week 8): −1.06%
- Study 2 - AST Mean CFB (50 mg q.d. responders, week 12): −0.5 IU/L
- Study 2 - AST Mean percentage CFB (50 mg q.d. responders, week 12): 1.37%
- Study 2 - AST Mean CFB (50 mg q.d. responders, week 16): 0.5 IU/L
- Study 2 - AST Mean percentage CFB (50 mg q.d. responders, week 16): 8.81%
- Study 2 - AST Mean CFB (50 mg q.d. responders, week 20): 0.5 IU/L
- Study 2 - AST Mean percentage CFB (50 mg q.d. responders, week 20): 7.58%
- Study 2 - AST Mean CFB (50 mg q.d. responders, week 24): −0.5 IU/L
- Study 2 - AST Mean percentage CFB (50 mg q.d. responders, week 24): 5.14%
- Study 2 - AST Mean CFB (100 mg q.d., week 1): 0.4 IU/L
- Study 2 - AST Mean percentage CFB (100 mg q.d., week 1): 8.99%
- Study 2 - AST Mean CFB (100 mg q.d., week 2): 1.3 IU/L
- Study 2 - AST Mean percentage CFB (100 mg q.d., week 2): 9.02%
- Study 2 - AST Mean CFB (100 mg q.d., week 4): 1.3 IU/L
- Study 2 - AST Mean percentage CFB (100 mg q.d., week 4): 15.05%
- Study 2 - AST Mean CFB (100 mg q.d., week 8): 1.9 IU/L
- Study 2 - AST Mean percentage CFB (100 mg q.d., week 8): 18.05%
- Study 2 - AST Mean CFB (100 mg q.d., week 12): 1.9 IU/L
- Study 2 - AST Mean percentage CFB (100 mg q.d., week 12): 16.02%
- Study 2 - AST Mean CFB (100 mg q.d., week 16): 5.4 IU/L
- Study 2 - AST Mean percentage CFB (100 mg q.d., week 16): 23.15%
- Study 2 - AST Mean CFB (100 mg q.d., week 20): 2.4 IU/L
- Study 2 - AST Mean percentage CFB (100 mg q.d., week 20): 23.16%
- Study 2 - AST Mean CFB (100 mg q.d., week 24): 1.5 IU/L
- Study 2 - AST Mean percentage CFB (100 mg q.d., week 24): 15.75%
- Study 2 - AST Mean CFB (200 mg q.d., week 1): 0.1 IU/L
- Study 2 - AST Mean percentage CFB (200 mg q.d., week 1): 7.59%
- Study 2 - AST Mean CFB (200 mg q.d., week 2): 0.9 IU/L
- Study 2 - AST Mean percentage CFB (200 mg q.d., week 2): 11.22%
- Study 2 - AST Mean CFB (200 mg q.d., week 4): 0.8 IU/L
- Study 2 - AST Mean percentage CFB (200 mg q.d., week 4): 13.13%
- Study 2 - AST Mean CFB (200 mg q.d., week 8): 1.4 IU/L
- Study 2 - AST Mean percentage CFB (200 mg q.d., week 8): 16.67%
- Study 2 - AST Mean CFB (200 mg q.d., week 12): 1.1 IU/L
- Study 2 - AST Mean percentage CFB (200 mg q.d., week 12): 15.21%
- Study 2 - AST Mean CFB (200 mg q.d., week 16): 2.2 IU/L
- Study 2 - AST Mean percentage CFB (200 mg q.d., week 16): 21.14%
- Study 2 - AST Mean CFB (200 mg q.d., week 20): 1.7 IU/L
- Study 2 - AST Mean percentage CFB (200 mg q.d., week 20): 17.43%
- Study 2 - AST Mean CFB (200 mg q.d., week 24): 1.4 IU/L
- Study 2 - AST Mean percentage CFB (200 mg q.d., week 24): 17.74%
- Study 2 - AST Mean CFB [1]: 0.9 IU/L
- Study 2 - AST Mean percentage CFB [1]: 8.60%
- Study 2 - AST Mean CFB [2]: 2.2 IU/L
- Study 2 - AST Mean percentage CFB [2]: 16.10%
- Study 2 - AST Mean CFB [3]: 2.1 IU/L
- Study 2 - AST Mean percentage CFB [3]: 13.64%
